Measured values from US8394816B2, “Methods of using [3.2.0] heterocyclic compounds and analogs thereof in treating Waldenstrom's Macroglobulinemia” (priority 2007, dated 2013).

What was measured:
[1] = Stability in solution; format: physicochemical; settings: converted to compound VI-1B, mixture 7:3
Protocol: The compound of Formula I-16 (15 mg, 0.048 mmol) was dissolved in 1:1 ratio of ACN/DMSO (8 ml) in a scintillation vial (20 ml) to which triethylamine (40 μl, 0.29 mmol), Glutathione (44.2 mg, 0.144 mmol) and a magnetic stir bar were added. The reaction mixture was stirred at room temperature for about 3 hours. The solvent was evaporated from the reaction mixture to yield the compound of Formula I-48, which was purified by reversed phase HPLC using Ace 5u C18 column (150 mm×22 mm ID) with a solvent gradient of 10% to 70% H2O/Acetonitrile over 15 min, 70 to 100% Acetonitrile over 5 min, holding at 100% Acetonitrile for 4 min, at a flow rate of 14.5 ml/min. Diode array detector was used to monitor the purification process. Compound I-48 (10 mg) eluted as a pure compound at 8.255 min. Compound I-48: UV (Acetonitrile/H2O) λmax 235 (sh) nm; ESMS m/z 621.0 (M+H)^+. […] Compound VI-1B: UV (Acetonitrile/H2O) λmax 235 (sh) nm; ESMS, m/z 585.2 (M+H)^+.

[2] = test system: BCWM.1 cells; format: cell-based; settings: for caspases-3, 8 and 9 cleavage: each agent 10 nM
Source text: To further dissect whether apoptosis is mediated through the intrinsic or extrinsic pathways, the effect of salinosporamide A, bortezomib and the combination on caspases-3, 8 and 9 was investigated.

[3] = test system: Akt; assay: In vitro Akt kinase assay; format: cell-based; settings: each agent 10 nM
Source text: FIG. 4B is a picture showing In vitro Akt kinase assay. […] Whole cell lysates were immunoprecipitated with anti-Akt antibody. Then the immunoprecipitate was washed and subjected to in vitro kinase assay according to manufacturer's protocol. Western blotting used anti-p-GSK3α/β and anti-Akt antibodies.

[4] = test system: caspase-like (C-L) activity of the 20S proteasome; assay: 20S proteasome caspase-like activity in treated cells; format: cell-based; settings: each agent 10 nM, 4 hours
[5] = test system: BCWM.1 cells; assay: IL-6-induced proliferation, thymidine uptake; format: cell-based; settings: salinosporamide A 2.5-20 nM, bortezomib 10 nM, IL-6 25 ng/mL
Protocol: Proliferation was assessed by thymidine uptake assay.
(§1) The effect of the two proteasome inhibitors on cytotoxicity of WM cells in the presence of IL-6 was also investigated. […] Whether the two proteasome inhibitors, used as single agent or in combination, could also target non-malignant hematopoietic cells was investigated.

[6] = test system: Akt and STAT-3 phosphorylation; assay: IL-6-triggered Akt and STAT-3 phosphorylation, western blotting; format: cell-based; settings: each agent 10 nM, 8 hours; IL-6 25 ng/mL 10 minutes
Protocol: Cells were then stimulated with IL-6 (25 ng/mL) for 10 minutes.
as §1

[7] = test system: BCWM.1 cells homing to the bone marrow; format: in vivo, BALB/c mice; settings: single agents, cells pretreated; data not shown
Protocol: FIG. 6D is a graph showing in vivo flow cytometry. DiI-labeled treated cells and DiR-labeled untreated cells were injected in the tail vein of 2 BALB/c mice. Cells were counted every 5 min for 45 minutes as described in Material and Methods.
DI-labeled BCWM.1 cells treated with salinosporamide A (10 nM, 4 hours), alone or in combination with bortezomib (5 nM), or DiR-labeled untreated BCWM.1 cells used as control were injected in the tail vein of BALB/c mice, followed by in vivo flow cytometry every 5 minutes for 45 minutes after injection.

[8] = test system: WM; settings: single agent, phase I trials; cited from earlier work
[9] = test system: trypsin-like (T-L) activity of the 20S proteasome; assay: 20S proteasome trypsin-like activity in treated cells; settings: 10 nM, 4 hours
[10] = test system: chymotrypsin-like (CT-L) activity of the 20S proteasome; assay: 20S proteasome chymotrypsin-like activity in treated cells; settings: 10 nM, 4 hours
[11] = test system: p65 phosphorylation and p50NF-κB expression; assay: Fibronectin-induced NF-κB activity, western blotting of nuclear extracts; settings: each agent 10 nM, 4 hours
Source text: Nuclear extracts were subjected to western blotting using anti-p-p65, -p50, and -nucleolin antibodies.

[12] = test system: BCWM.1 cells; assay: [3H]-thymidine uptake proliferation assay; format: cell-based; settings: BCWM1; BCWM.1, 48 hours; read-out: IC50, inhibition of proliferation ([3H]-thymidine uptake)
Protocol: (§2) FIG. 1A is a graph showing thymidine uptake assay and cytotoxicity assessed by MTT. BCWM.1 cells were cultured with salinosporamide A (2.5-40 nM) for 48 hours.
WM and IgM-secreting cell lines were cultured for 48 hours in the presence of salinosporamide A (Formula I-16) (2.5-40 nM).

[13] = test system: WM-WSU, MEC-1, Namalwa; assay: [3H]-thymidine uptake assay, IgM-secreting cell lines; format: cell-based; settings: Homo sapiens, MEC1, 48 hours, read-out: IC50, [3H]-thymidine uptake, all cell lines tested
Protocol: FIG. 1B is a graph showing thymidine uptake assay.
WM and IgM-secreting cell lines were cultured for 48 hours in the presence of salinosporamide A (Formula I-16) (2.5-40 nM). […]

[14] = test system: BCWM.1 cells; assay: cells
Protocol: as §2
FIG. 2A is a graph showing BCWM.1 cells cultured with salinosporamide A (2.5, 5 and 10 nM) for 48 hours, in the presence or absence of bortezomib (5 and 10 nM). Cytotoxicity was assessed by MTT assay.
All experiments were repeated in triplicate.

[15] = test system: WM-WSU, MEC-1, Namalwa; assay: MTT cytotoxicity assay, other IgM-secreting cell lines; format: cell-based; settings: Homo sapiens, MEC1; 48 hours
[16] = test system: primary CD19+ cells isolated from three patients with WM; assay: tissue or blood; settings: Homo sapiens, read-out: IC50, cytotoxicity in primary CD19+ cells (MTT)
Protocol: FIG. 1D is a graph showing freshly isolated bone marrow CD19^+ tumor cells from 3 patients with WM were cultured with salinosporamide A (2.5-40 nM [E]; 2.5-80 nM [F]). Cytotoxicity was assessed by MTT assay.

[17] = test system: BCWM.1 cells; assay: Apo2.7 staining apoptosis, flow cytometry; format: cell-based; settings: 48 hours, untreated 5%
Protocol: FIG. 1E is a graph showing BCWM. 1 cultured with salinosporamide A for 48 hours at doses that range from 2 to 30 nM and the percentage of cells undergoing apoptosis was studied by Apo2.7 staining.
The molecular mechanisms whereby salinosporamide A induces cytotoxicity in WM cells was examined.

[18] = test system: NF-κBp65; assay: NF-κBp65 DNA binding activity (Active Motif assay), TNF-α stimulated; format: cell-based; settings: each agent 10 nM, 4 hours; TNF-α 10 ng/mL last 20 minutes
Protocol: FIG. 3A is a graph showing BCWM.1 cells cultured with either salinosporamide A (10 nM), bortezomib (10 nM), or the combination for 4 hours, then human TNF-α (10 ng/mL) was added for the last 20 minutes. NF-κBp65 transcription factor-binding to its consensus sequence on the plate-bound oligonucleotide was studied from nuclear extract. Wild type and mutant are wild type and mutated consensus competitor oligonucleotides, respectively. All results represent means (±sd) of triplicate experiments.
The effect of salinosporamide A either alone or in combination with bortezomib on the NF-κBp65 DNA binding activity was investigated, studying nuclear extracts from treated cells using the Active Motif assay. […] Phospho-p65 translocation from the cytoplasmic compartment to the nucleus was inhibited by the combination of bortezomib and salinosporamide A, resulting in a significant increase in p-p65 expression in the cytoplasmic compartment as shown by immunofluorescence (FIG. 3D).

[19] = test system: BCWM.1 cells adherent to BMSCs; assay: [3H]-TdR uptake in co-culture with BMSCs; format: cell-based; settings: salinosporamide A 2.5-20 nM, bortezomib 10 nM, 48 hours
Protocol: Whether salinosporamide A, alone or in combination with bortezomib, inhibits WM cells growth in the context of the BM milieu was investigated. BCWM.1 cells were cultured with salinosporamide A (2.5-20 nM) and/or bortezomib (10 nM) in the presence or absence of BMSCs, for 48 hours.

[20] = test system: BM hematopoietic progenitor cells; assay: Colony-forming cell assay; settings: salinosporamide A 10 nM, 20 nM; bortezomib 10 nM; day 14
Source text: FIG. 5D is a graph showing colony-forming cell assay. […] All experiments have been done in triplicate.
as §1

[21] = test system: BCWM.1 cells; assay: Transwell migration assay towards SDF-1; format: cell-based; settings: each agent 10 nM, 4 hours; SDF-1 30 nM
Source text: Cells were then subjected to migration as previously described in Alsayed Y, Ngo H, Runnels J., et al. Mechanisms of regulation of CXCR4/SDF-1 (CXCL12)-dependent migration and homing in multiple myeloma. Blood.

[22] = test system: PBMCs from 3 healthy volunteers
[23] = test system: BMSCs
[24] = test system: Akt knockdown BCWM.1 cell line; assay: MTT cytotoxicity in Akt knockdown cell line; settings: 2.5-20 nM, 48 hours
Protocol: BCWM.1 transfected cells or BCWM.1 control cells were treated with salinosporamide A (2.5-20 nM) for 48 hours. Cytotoxicity was assessed by MTT assay.

[25] = test system: PI3K/Akt signaling pathway in BCWM.1 cells; assay: Western blotting of PI3K/Akt signaling pathway; settings: 2.5-20 nM, 6 hours
Source text: Whole cell lysate were subjected to Western blotting using anti-p-Akt, -Akt, -p-GSK3α/β, -p-S6R, -p-ERK, and -α-tubulin antibodies.

Question: Which stability in solution [1] does the source give for C[C@]1(O)[C@@H](CCCl)C(=O)N[C@]1(C(=O)SCC(NC(=O)CCC(N)C(=O)O)C(=O)NCC(=O)O)[C@@H](O)[C@@H]1C=CCCC1 (some centres unmarked) [Compound I-48] here?
Answer: unstable in solution

Question: Which “caspases-3, 8 and 9 cleavage” value ([2]; 12 hours) does the source give for CC(C)C[C@H](NC(=O)[C@H](Cc1ccccc1)NC(=O)c1cnccn1)B(O)O [bortezomib, Bortezomib, reference compound] here?
Answer: induced-9 and -3 cleavage

Question: And the “Akt kinase activity (phosphorylation of GSK3α/β fusion protein)” value [3]?
Answer: did not modulate Akt phosphorylation

Question: What about the “reduction of the C-L activity” value [4] of the same molecule?
Answer: 29%

Question: What about the “IL-6-induced proliferation of BCWM.1 cells” value [5] of the same molecule?
Answer: inhibited IL-6-induced proliferation of BCWM.1 cells

Question: What about the “IL-6-triggered Akt and STAT-3 phosphorylation” value [6] of the same molecule?
Answer: inhibited IL-6-triggered Akt and STAT-3 phosphorylation

Question: And the “homing of WM cells to the bone marrow” value [7]?
Answer: Neither salinosporamide A nor bortezomib used as single agents significantly inhibited homing

Question: And the “responses in WM” value [8]?
Answer: 40-80%

Question: And the “reduction of the T-L activity” value [9]?
Answer: 5%

Question: What about the “reduction of the CT-L activity” value [10] of the same molecule?
Answer: 69%

Question: And the “FN-induced p65 phosphorylation and p50NF-κB expression” value [11]?
Answer: inhibited

Question: For C[C@@]12OC(=O)[C@]1([C@@H](O)[C@@H]1C=CCCC1)NC(=O)[C@@H]2CCCl [salinosporamide A], which IC50 [12] is on record?
Answer: 15 nM

Question: What about the IC50 [13] of the same molecule?
Answer: 20 to 30 nM

Question: What about the IC50 ([14]; BCWM1, 48 h, read-out: IC50, decreased survival (MTT)) of the same molecule?
Answer: 18 nM

Question: And the “cytotoxicity, % of BCWM.1 cells (MTT)” value ([14]; human)?
Answer: 12.4%

Question: And the IC50 [15]?
Answer: 30 to 40 nM

Question: What about the IC50 [16] of the same molecule?
Answer: 20 to 30 nM

Question: And the “percentage of apoptotic BCWM.1 cells” value ([17]; 5 nM)?
Answer: 21.2%

Question: And the “percentage of apoptotic BCWM.1 cells” value ([17]; 20 nM)?
Answer: 40%

Question: And the Mcl-1 expression ([2]; 2.5-20 nM, 12 hours)?
Answer: induced down-modulation of the anti-apoptotic protein Mcl-1

Question: What about the XIAP expression ([2]; 2.5-20 nM, 12 hours) of the same molecule?
Answer: down-regulated the expression of XIAP in a dose-dependent manner

Question: What about the “caspase-8 and PARP cleavage” value ([2]; 2.5-20 nM, 12 hours) of the same molecule?
Answer: induced caspase-8 and PARP cleavage in a dose-dependent manner

Question: And the “caspase-3 and -9” value ([2]; 2.5-20 nM, data not shown)?
Answer: without affecting caspase-3 and -9

Question: What about the “caspases-3, 8 and 9 cleavage” value ([2]; 12 hours) of the same molecule?
Answer: induced mild capsase-8 cleavage without affecting caspase-3 and 9 cleavage

Question: And the “TNF-α induced NF-κB recruitment to the nucleus (NF-κBp65 DNA binding)” value [18]?
Answer: inhibited by salinosporamide A more than bortezomib

Question: And the “Akt kinase activity (phosphorylation of GSK3α/β fusion protein)” value [3]?
Answer: decreased phosphorylation of GSK3α/β fusion protein

Question: And the “reduction of the C-L activity” value [4]?
Answer: 34.3%

Question: And the “BMSC-triggered increase in proliferation of BCWM.1 cells” value [19]?
Answer: inhibited by salinosporamide A in a dose-dependent manner

Question: And the “IL-6-induced proliferation of BCWM.1 cells” value [5]?
Answer: inhibited IL-6-induced proliferation of BCWM.1 cells

Question: What about the “IL-6-triggered Akt and STAT-3 phosphorylation” value [6] of the same molecule?
Answer: inhibited IL-6-triggered Akt and STAT-3 phosphorylation

Question: And the “growth of BM hematopoietic progenitor cells (colony formation)” value [20]?
Answer: did not affect the growth of BM hematopoietic progenitor cells

Question: And the “WM cells migration towards SDF-1” value [21]?
Answer: slightly inhibited

Question: What about the “homing of WM cells to the bone marrow” value [7] of the same molecule?
Answer: Neither salinosporamide A nor bortezomib used as single agents significantly inhibited homing

Question: And the “cytotoxic effect on PBMCs” value [22]?
Answer: no cytotoxic effect

Question: And the “viability of BMSCs (MTT)” value [23]?
Answer: not affected

Question: And the “cytotoxic effect in the absence of Akt” value [24]?
Answer: abrogated

Question: What about the “phosphorylation of Akt (ser473), GSK3α/β and ribosomal protein S6” value [25] of the same molecule?
Answer: inhibited phosphorylation of Akt (ser473), and downstream GSK3α/β and ribosomal protein S6 in a dose dependent manner

Question: And the “phosphorylation of ERK1/2 (thr202/tyr204)” value [25]?
Answer: no activity on the phosphorylation of the MAP kinase ERK1/2

Question: What about the “reduction of the T-L activity” value [9] of the same molecule?
Answer: 38.7%

Question: What about the “reduction of the CT-L activity” value [10] of the same molecule?
Answer: 81%

Question: What about the “FN-induced p65 phosphorylation and p50NF-κB expression” value [11] of the same molecule?
Answer: inhibited
